In patent EP0726072A2, “Composition for the treatment of hypertension and congestive heart failure, containing an angiotensin II antagonist and an endopeptidase inhibitor” (BRISTOL-MYERS SQUIBB COMPANY, priority 1995, dated 1996):

Columns and labels:
[1] = test system: cardiomyopathic hamsters; details: 30 µmol/kg, i.v.; within 90 minutes; previously shown in this model; cited from earlier work
[2] = test system: 1K1C hypertensive dogs; assay: Haemodynamic, renal and hormonal effects in conscious 1-kidney-1-clip hypertensive dogs; assay type: in vivo
Procedure: The studies described in this experiment were conducted in dogs that had been rendered hypertensive by prior unilateral nephrectomy and constriction of the remaining renal artery. This model is characterized by normal basal levels of plasma renin activity and is relatively resistant to the anti-hypertensive activity of angiotensin converting enzyme inhibitors and AT1 receptor antagonists.
The following experiments were conducted in fasted 1K1C hypertensive dogs lightly restrained in standard canine slings. An indwelling arterial catheter was accessed via a subcutaneous port for measurement of blood pressure via a Gould-Statham pressure transducer. Mean arterial pressure (MAP) was continuously recorded on a Gould chart writer and stored electronically using a Po-Ne-Mah data acquisition system. During each study, urine was collected at 20 minute intervals via a Foley bladder catheter for determination of urine volume. The concentrations of urinary sodium and potassium were measured using ion-selective electrodes and their rates of urinary excretion (µEq/min) were calculated. Glomerular filtration rate (GFR) and effective renal plasma flow (ERPF) were determined by the renal clearances of exogenous creatinine and para-aminohippuric acid (PAH), respectively. The concentrations of creatinine and PAH in sequential samples of urine and plasma were determined by spectrophotometric assays and the clearances were calculated by the standard formula.
Arterial blood samples were drawn at the end of the control period and at 60 minute intervals thereafter for determination of the plasma concentrations of atrial natriuretic peptide (ANP), cyclic GMP and plasma renin activity (PRA) by separate radioimmunoassays. The plasma and urine samples were preserved and the assays were conducted according to standard radioimmunoassay procedures. Urinary excretion rates of cyclic GMP and ANP were calculated and expressed as pmol/min and fmol/min, respectively.
In each study, baseline measurements were obtained during two 20 minute control periods. One of the treatments was then administered and sampling continued at 20 minute intervals for three hours.
To minimize inter-animal variability, each data point was expressed as the change from the average control value for that parameter. Significant differences among treatments were identified by analysis of variance for repeated measures. […] Results are given as mean ± SEM.

[3] = 20 min after treatment, 30 µmol/kg iv of each agent
[4] = 40 min after treatment, 30 µmol/kg iv of each agent
[5] = 60 min after treatment, 30 µmol/kg iv of each agent
[6] = 80 min after treatment, 30 µmol/kg iv of each agent
[7] = 100 min after treatment, 30 µmol/kg iv of each agent
[8] = 120 min after treatment, 30 µmol/kg iv of each agent
[9] = 140 min after treatment, 30 µmol/kg iv of each agent
[10] = 160 min after treatment, 30 µmol/kg iv of each agent
[11] = 180 min after treatment, 30 µmol/kg iv of each agent

With `O=C(O)CCNC(=O)C(CS)Cc1ccccc1` (racemic) [SQ 28603, (±)-N-[2-(mercaptomethyl)-1-oxo-3-phenylpropyl]-β-alanine] as the compound, how does the “plasma atrial natriuretic peptide concentration” value [1] read?
The value was “doubling”.

And the “increase in the amount of sodium excreted during the 3 hours after injection” value ([2]; 30 µmol/kg iv of each agent, cumulative over 3 hours)?
Its value is 5.2±2.3 mEq/3 hr.

What about the “Cyclic GMP excretion, change over 3 hr” value ([2]; 30 µmol/kg iv of each agent, not statistically significant compared to vehicle) of the same compound?
Its value is “+32±28 nmol/3 hr”.

What about the “ANP Excretion, Change from control” value [2, 3] of the same compound?
The value was 20.8 ± 4.9 fmol/min.

And the “Cyclic GMP Excretion, Change from control” value [2, 3]?
Its value is 106 ± 295 pmol/min.

And the “Effective Renal Plasma Flow, Change from control” value [2, 3]?
The value was 6 ± 38 mL/min.

What about the “Glomerular Filtration Rate, Change from control” value [2, 3] of the same compound?
Its value is 6 ± 11 mL/min.

And the “Mean Arterial Pressure, Change from control” value (“Mean Arterial Pressure, Change” below) [2, 3]?
Its value is 6±1 mm Hg.

And the “Sodium Excretion, Change from control” value [2, 3]?
Its value is 13±4 µEq/min.

And the “Urine Volume, Change from control” value [2, 3]?
The value was 0.29 ± 0.31 mL/min.

What about the “ANP Excretion, Change from control” value [2, 4] of the same compound?
Its value is 24.0 ± 4.6 fmol/min.

And the “Cyclic GMP Excretion, Change from control” value [2, 4]?
The value was 101 ± 280 pmol/min.

What about the “Effective Renal Plasma Flow, Change from control” value [2, 4] of the same compound?
Its value is -5 ± 15 mL/min.

What about the “Glomerular Filtration Rate, Change from control” value [2, 4] of the same compound?
The value was 3 ± 2 mL/min.

What about the “Mean Arterial Pressure, Change” value [2, 4] of the same compound?
Its value is 9±3 mm Hg.

What about the “Sodium Excretion, Change from control” value [2, 4] of the same compound?
Its value is 21±16 µEq/min.

What about the “Urine Volume, Change from control” value [2, 4] of the same compound?
Its value is 0.15 ± 0.13 mL/min.

And the “ANP Excretion, Change from control” value [2, 5]?
The value was 45.2 ± 24.2 fmol/min.

What about the “Cyclic GMP Excretion, Change from control” value [2, 5] of the same compound?
The value was 338 ± 206 pmol/min.

And the “Effective Renal Plasma Flow, Change from control” value [2, 5]?
The value was 3 ± 20 mL/min.

And the “Glomerular Filtration Rate, Change from control” value [2, 5]?
The value was 6 ± 5 mL/min.

What about the “Mean Arterial Pressure, Change” value [2, 5] of the same compound?
The value was 8±3 mm Hg.

What about the “Plasma Renin Activity, Change from control” value (“Plasma Renin Activity, Change” below) [2, 5] of the same compound?
The value was -0.07±0.05 pmol AI/ml/hr.

And the “Sodium Excretion, Change from control” value [2, 5]?
Its value is 14±9 µEq/min.

And the “Urine Volume, Change from control” value [2, 5]?
The value was 0.18 ± 0.14 mL/min.

What about the “ANP Excretion, Change from control” value [2, 6] of the same compound?
Its value is 55.5 ± 19.7 fmol/min.

And the “Cyclic GMP Excretion, Change from control” value [2, 6]?
The value was 226 ± 154 pmol/min.

And the “Effective Renal Plasma Flow, Change from control” value [2, 6]?
The value was -20 ± 6 mL/min.

What about the “Glomerular Filtration Rate, Change from control” value [2, 6] of the same compound?
Its value is 5 ± 2 mL/min.

What about the “Mean Arterial Pressure, Change” value [2, 6] of the same compound?
Its value is 8±2 mm Hg.

And the “Sodium Excretion, Change from control” value [2, 6]?
The value was 25±13 µEq/min.

What about the “Urine Volume, Change from control” value [2, 6] of the same compound?
Its value is 0.21 ± 0.15 mL/min.

And the “ANP Excretion, Change from control” value [2, 7]?
Its value is 41.0 ± 12.3 fmol/min.

And the “Cyclic GMP Excretion, Change from control” value [2, 7]?
The value was 128 ± 178 pmol/min.

And the “Effective Renal Plasma Flow, Change from control” value [2, 7]?
Its value is -25 ± 10 mL/min.

What about the “Glomerular Filtration Rate, Change from control” value [2, 7] of the same compound?
Its value is 5 ± 4 mL/min.

And the “Mean Arterial Pressure, Change” value [2, 7]?
The value was 5±3 mm Hg.

And the “Sodium Excretion, Change from control” value [2, 7]?
The value was 24±12 µEq/min.

And the “Urine Volume, Change from control” value [2, 7]?
Its value is 0.07 ± 0.08 mL/min.

And the “ANP Excretion, Change from control” value [2, 8]?
The value was 48.3 ± 21.5 fmol/min.

What about the “Cyclic GMP Excretion, Change from control” value [2, 8] of the same compound?
The value was 117 ± 220 pmol/min.

And the “Effective Renal Plasma Flow, Change from control” value [2, 8]?
The value was -15 ± 6 mL/min.

What about the “Glomerular Filtration Rate, Change from control” value [2, 8] of the same compound?
Its value is 5 ± 1 mL/min.

What about the “Mean Arterial Pressure, Change” value [2, 8] of the same compound?
The value was 3±4 mm Hg.

What about the “Plasma Renin Activity, Change” value [2, 8] of the same compound?
Its value is -0.02±0.05 pmol AI/ml/hr.

What about the “Sodium Excretion, Change from control” value [2, 8] of the same compound?
Its value is 35±19 µEq/min.

What about the “Urine Volume, Change from control” value [2, 8] of the same compound?
The value was 0.12 ± 0.13 mL/min.

What about the “ANP Excretion, Change from control” value [2, 9] of the same compound?
Its value is 41.8 ± 14.2 fmol/min.

And the “Cyclic GMP Excretion, Change from control” value [2, 9]?
The value was 121 ± 182 pmol/min.

What about the “Effective Renal Plasma Flow, Change from control” value [2, 9] of the same compound?
Its value is -11 ± 12 mL/min.

What about the “Glomerular Filtration Rate, Change from control” value [2, 9] of the same compound?
The value was 7 ± 4 mL/min.

And the “Mean Arterial Pressure, Change” value [2, 9]?
Its value is 4±2 mm Hg.

And the “Sodium Excretion, Change from control” value [2, 9]?
Its value is 39±18 µEq/min.

And the “Urine Volume, Change from control” value [2, 9]?
Its value is 0.20 ± 0.10 mL/min.

And the “ANP Excretion, Change from control” value [2, 10]?
The value was 36.9 ± 12.4 fmol/min.

What about the “Cyclic GMP Excretion, Change from control” value [2, 10] of the same compound?
The value was 100 ± 246 pmol/min.

And the “Effective Renal Plasma Flow, Change from control” value [2, 10]?
Its value is -1 ± 12 mL/min.

What about the “Glomerular Filtration Rate, Change from control” value [2, 10] of the same compound?
The value was 9 ± 5 mL/min.

What about the “Mean Arterial Pressure, Change” value [2, 10] of the same compound?
The value was 5±2 mm Hg.

What about the “Sodium Excretion, Change from control” value [2, 10] of the same compound?
The value was 44±19 µEq/min.

And the “Urine Volume, Change from control” value [2, 10]?
Its value is 0.24 ± 0.11 mL/min.

And the “ANP Excretion, Change from control” value [2, 11]?
The value was 29.0 ± 7.9 fmol/min.

What about the “Cyclic GMP Excretion, Change from control” value [2, 11] of the same compound?
The value was 343 ± 170 pmol/min.

And the “Effective Renal Plasma Flow, Change from control” value [2, 11]?
The value was -4 ± 9 mL/min.

And the “Glomerular Filtration Rate, Change from control” value [2, 11]?
Its value is 10 ± 4 mL/min.

What about the “Mean Arterial Pressure, Change” value [2, 11] of the same compound?
The value was 7±3 mm Hg.

And the “Plasma Renin Activity, Change” value [2, 11]?
Its value is -0.01±0.7 pmol AI/ml/hr.

And the “Sodium Excretion, Change from control” value [2, 11]?
Its value is 44±18 µEq/min.

What about the “Urine Volume, Change from control” value [2, 11] of the same compound?
Its value is 0.17 ± 0.06 mL/min.

What about the “ANP Excretion” value ([2]; Control, before treatment) of the same compound?
The value was 1.9 ± 0.2 fmol/min.

And the “Cyclic GMP Excretion” value ([2]; Control, before treatment)?
The value was 1017 ± 180 pmol/min.

And the “Effective Renal Plasma Flow” value ([2]; Control, before treatment)?
The value was 123 ± 15 mL/min.

And the “Glomerular Filtration Rate” value ([2]; Control, before treatment)?
The value was 39 ± 5 mL/min.

What about the “Mean Arterial Pressure” value ([2]; Control, before treatment) of the same compound?
Its value is 132±8 mm Hg.

What about the “Plasma Renin Activity” value ([2]; Control, before treatment) of the same compound?
The value was 0.16±0.02 pmol AI/ml/hr.

What about the “Sodium Excretion” value ([2]; Control, before treatment) of the same compound?
The value was 40±20 µEq/min.

And the “Urine Volume” value ([2]; Control, before treatment)?
Its value is 0.38 ± 0.13 mL/min.

And the “sodium excretion, effect in words” value ([2]; summary of TABLE 2, 30 µmol/kg iv of each agent, 3 hours)?
Its value is “increased”.

And the “urine volume, effect in words” value ([2]; summary of TABLE 3, 30 µmol/kg iv of each agent, 3 hours)?
The value was “increased”.

What about the “Urinary excretion of ANP, effect in words” value ([2]; summary of TABLE 6, 30 µmol/kg iv of each agent) of the same compound?
The value was “increased significantly”.

What about the “mean arterial pressure (MAP), effect in words” value ([2]; summary of Table 1, 30 µmol/kg iv of each agent, 3 hours) of the same compound?
Its value is “initially increased”.
